The source made the active and inactive calls. No cut-off for these calls is given here.
How the values were obtained:
Type in all cases: cell-based
[1] = biological target: T1, Vitamin D3 receptor (Homo sapiens) (UniProt P11473); test: Agonist activity at vitamin D receptor (unknown origin) expressed in HEK293 cells co-expressing pCMX-RXRalpha and pCMX-beta-galactosidase assessed as induction of receptor transactivation incubated for 16 to 24 hrs by luciferase reporter gene assay relative to 3-keto-LCA
T1 sequence (whole entry): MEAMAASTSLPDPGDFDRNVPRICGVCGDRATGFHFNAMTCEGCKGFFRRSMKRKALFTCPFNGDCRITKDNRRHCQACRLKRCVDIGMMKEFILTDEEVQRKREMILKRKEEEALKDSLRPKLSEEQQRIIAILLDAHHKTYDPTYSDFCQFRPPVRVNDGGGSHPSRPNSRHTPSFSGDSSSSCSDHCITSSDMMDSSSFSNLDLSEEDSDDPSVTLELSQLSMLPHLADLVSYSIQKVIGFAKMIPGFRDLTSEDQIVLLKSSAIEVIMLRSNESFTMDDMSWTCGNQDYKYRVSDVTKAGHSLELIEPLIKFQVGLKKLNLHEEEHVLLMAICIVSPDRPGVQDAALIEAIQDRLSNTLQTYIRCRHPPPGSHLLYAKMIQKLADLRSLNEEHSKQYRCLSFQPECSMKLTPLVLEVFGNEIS

Vitamin D3 receptor = biological target: T2, Vitamin D3 receptor (Homo sapiens, UniProt P11473); test: (§1) Agonist activity at vitamin D receptor (unknown origin) expressed in HEK293 cells co-expressing pCMX-RXRalpha and pCMX-beta-galactosidase assessed as induction of receptor transactivation incubated for 16 to 24 hrs by luciferase reporter gene assay
T2 sequence (P11473 whole entry): T1 sequence (whole entry)

[2] = biological target: T1, Vitamin D3 receptor (Homo sapiens); test: as §1

Row | Activity [1] | EC50 (Vitamin D3 receptor) [µM] | Compound | Activity [2]
1 |  | 0.85 | C[C@H](CCCC(C)(C)O)[C@H]1CC[C@H]2[C@@H]3CCc4cc(O)ccc4[C@H]3CC[C@]12C | 
2 | Active |  | CC(C)(O)CCC[C@H]1C[C@@]12CC[C@H]1[C@@H]3CCc4cc(O)ccc4[C@H]3CC[C@@]12C | 
3 | Active | 3.7 | CC(C)(O)CCC[C@@H]1C[C@@]12CC[C@H]1[C@@H]3CCc4cc(O)ccc4[C@H]3CC[C@@]12C | 

Further lines, the molecule ahead of its results:

Row | Compound | Activity [1] | EC50 (Vitamin D3 receptor) [µM] | Activity [2]
4 | CC(C)(O)CCC[C@@H]1C[C@@H]2C[C@H]3[C@@H]4CCc5cc(O)ccc5[C@H]4CC[C@]3(C)[C@]12O | Active | 4.1 | 
5 | C[C@H](CCC(=O)O)[C@H]1CC[C@H]2[C@@H]3CC[C@@H]4CC(=O)CC[C@]4(C)[C@H]3CC[C@]12C |  |  | Active
6 | C[C@]12CCC(=O)C[C@H]1CC[C@@H]1[C@@H]2CC[C@@]2(C)[C@H]1C[C@H]1C[C@H](CCC(=O)O)[C@]12O | inactive |  | 
7 | C[C@]12CCC(=O)C[C@H]1CC[C@@H]1[C@@H]2CC[C@@]2(C)[C@H]1CC[C@@]21C[C@H]1CCC(=O)O | inactive |  | 
8 | C[C@]12CCC(=O)C[C@H]1CC[C@@H]1[C@@H]2CC[C@@]2(C)[C@H]1C[C@H]1C[C@@H](CCC(=O)O)[C@]12O | inactive |  | 
9 | CC(C)(O)CCC[C@H]1C[C@@H]2C[C@H]3[C@@H]4CCc5cc(O)ccc5[C@H]4CC[C@]3(C)[C@@]21O | Active |  | 
10 | C[C@]12CCC(=O)C[C@H]1CC[C@@H]1[C@@H]2CC[C@@]2(C)[C@H]1CC[C@@]21C[C@@H]1CCC(=O)O | inactive |  | 
